BindingDB's records for doi:10.1016/S0960-894X(01)80741-1 (1993)

Test: Compound was tested for inhibitory activity against carboxypeptidase A

O=C(O)[C@@H](CS)Cc1ccccc1 [(S)-2-Mercaptomethyl-3-phenyl-propionic acid]
Ki: 7.8 nM
